From patent US20130143905A1, “NOVEL ANTAGONISTS FOR CCR2 AND USES THEREOF” (BOEHRINGER INGELHEIM INTERNATIONAL GMBH, priority 2009, published 2013)

What follows are compounds tested against T1, CCR2 (Homo sapiens, UniProt P41597) (assay: CCR2 receptor membrane binding assay ([125I]MCP-1, THP-1 membranes, SPA beads)). Conditions: THP-1 cell membranes, [125I]MCP-1 displacement, dissociation constant hKi.
T1 construct: Membranes were prepared from THP-1 cells; endogenous in cells; host or cells: THP-1 (human acute monocytic leukaemia cells), membrane preparation
T1 sequence (P41597 1-360 isoform P41597-2): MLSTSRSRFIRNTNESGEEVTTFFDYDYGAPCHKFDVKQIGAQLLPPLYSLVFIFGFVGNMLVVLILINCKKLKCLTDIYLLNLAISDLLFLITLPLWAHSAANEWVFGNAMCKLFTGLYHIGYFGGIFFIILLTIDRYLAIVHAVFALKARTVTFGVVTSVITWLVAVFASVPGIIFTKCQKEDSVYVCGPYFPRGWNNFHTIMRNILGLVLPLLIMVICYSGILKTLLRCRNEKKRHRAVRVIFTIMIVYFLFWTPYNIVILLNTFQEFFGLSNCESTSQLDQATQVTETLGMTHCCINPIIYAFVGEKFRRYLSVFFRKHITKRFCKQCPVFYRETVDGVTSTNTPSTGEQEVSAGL
Protocol: The above exemplary substances have been tested for binding to CCR2 using a binding assay as outlined herein below:
THP-1 cells (human acute monocytic leukaemia cells) were cultured under standardized conditions at 37° C. and 5% CO2 in a humidified incubator. THP-1 cells were cultivated in RPMI 1640 medium (Gibco 21875) containing 1% MEM-NEAA (Gibso 11140) 2 mM L-glutamine, 1.5 g/L sodium bicarbonate, 4.5 g/L glucose, 10 mM HEPES and 1.0 mM sodium pyruvate, 90%; 10% fetal calf serum (FCS Gibco 10500-064).
Membranes were prepared from THP-1 cells. THP-1 cells were centrifuged at 300×g at 4° C. for 10 min. The cell pellet was resuspendet in Phosphate Buffer Saline (PBS, including 10 μM Pefabloc and a protease inhibitor mix ‘complete’, Boehringer Mannheim (1 tablet/50 ml)), to a concentration of […]. The membrane preparation was performed by disrupting the cells by nitrogen […] (at 50 bar, for 1 h) in a “Nitrogen Bombe” (Parr Instrument). Cell debris was removed by centrifugation (800×g at 4° C., 1 min). The supernatant was centrifuged at 80000×g, 4° C. for 30 min to sediment the cell membranes. Usually 50 mg of protein (Bradford assay) were yielded from 1×10E9 cells. The membranes were resuspendet in 25 mM HEPES, 25 mM MgCl2, 1 mM CaCl2, 10% Glycerine for storage in aliquots at −80° C. in 25 mM HEPES, 25 mM MgCl2, 1 mM CaCl2, 10% Glycerine and stored at −80° C.
Perkin Elmer NEX 332 Jod 125 MCP-1, Stock: 2200 Ci/mmol solved in 2000 μl assay buffer, stored at −20° C. THP-1 membrane were adjusted with 25 mM HEPES, pH 7.2; 5 mM MgCl2; 0.5 mM CaCl2; 0.2% BSA assay buffer to a concentration of 2.5 μg/15 μl. Amersham Biosciences PVT-WGA Beads (RPNQ0001) were adjusted with assay buffer to a concentration of 0.24 mg/30 μl. For preparation of the membrane-bead-suspension membranes and beads were incubated for 30 min at RT under rotation (60 rpm) with a ratio of 1:2. Test compounds dissolved in 100% DMSO to a concentration of 10 mM and are further diluted with 100% DMSO to 1 mM. All additional compound dilutions were obtained with assay buffer, final 1% DMSO. Compounds, membrane-bead-suspension and [125I]MCP-1 (ca. 25000 cpm/10 μl) were incubated. Bound radioactivity was determined by scintillation counter after 8 h. Determination of affinity of test compounds (dissociation constant hKi) is calculated by iterative fitting of experimental data using the “easy sys” program, which is based on law of mass action (Schittkowski K. (1994), Numerische Mathematik, Vol. 68, 129-142).

Ki [nM] | SMILES
7 | COc1c(NC[C@H]2CCC[C@@H](c3ccc(Cl)cc3)O2)ncnc1C(=O)N1CCC(N[C@H]2CCOC[C@H]2OC)CC1 [Example 10g]
16 | COc1c(NC[C@H]2CCC[C@@H](c3ccccc3)C2)ncnc1C(=O)N1CCC(N(C)C2CCOCC2OC)CC1 (some centres unmarked) [Example 14]
121 | COc1c(NCc2ccc(C(C)(C)C)cc2)ncnc1C(=O)N1CCC(N2CCC(N(C)S(C)(=O)=O)CC2)CC1 [Example 10a]
82 | CN(C1CCN(C2CCN(C(=O)c3ncnc(NCc4ccc(C(C)(C)C)cc4)c3C3CC3)CC2)CC1)S(C)(=O)=O [Example 2]
4 | COc1c(NC[C@H]2CCC[C@@H](c3ccc(C(F)(F)F)cc3)O2)ncnc1C(=O)N1CCC(NC2CCOCC2F)CC1 (some centres unmarked) [Example 10l]
18 | COc1c(NC[C@H]2CCC[C@@H](c3ccc(C)cc3)O2)ncnc1C(=O)N1CCC(N[C@@H]2CCOC[C@@H]2OC)CC1 [Example 6]
13 | COc1c(NC[C@H]2CCC[C@@H](c3ccc(C)cc3)O2)ccnc1C(=O)N1CCC(N[C@H]2CCOC[C@H]2OC)CC1 [Example 15]
1 | COc1c(NC[C@H]2CCC[C@@H](c3ccc(C(F)(F)F)cc3)O2)ncnc1C(=O)N1CCC(N[C@H]2CCOC[C@H]2OC)CC1 [Example 10h]
5 | COc1c(NC[C@H]2CCC[C@@H](c3ccccc3)C2)ncnc1C(=O)N1CCC(NC2CCOCC2OC)CC1 (some centres unmarked) [Example 13]
377 | COc1c(NC[C@@H]2CCC[C@H](c3ccc(Cl)cc3)O2)ncnc1C(=O)N1CCC(N2CCC(N(C)S(C)(=O)=O)CC2)CC1 [Example 10c]
162 | COc1c(NC[C@@H]2CCC[C@H](c3ccc(Cl)cc3)O2)ncnc1C(=O)N1CCC(N[C@@H]2CCOC[C@@H]2OC)CC1 [Example 10b]
1 | COc1c(NC[C@H]2CCC[C@@H](c3ccc(OC(F)(F)F)cc3)O2)ncnc1C(=O)N1CCC(NC2CCOCC2F)CC1 (some centres unmarked) [Example 10m]
73 | COc1c(NC[C@H]2CCC[C@@H](c3cccc(C)c3)O2)ncnc1C(=O)N1CCC(N2CCC(N(C)S(C)(=O)=O)CC2)CC1 [Example 8]
120 | COc1c(NC[C@@H]2CCC[C@H](c3ccc(Cl)cc3)O2)ncnc1C(=O)N1CCC(N[C@H]2CCOC[C@H]2OC)CC1 [Example 10d]
2 | COc1c(NC[C@H]2CCC[C@@H](c3ccc(OC(F)(F)F)cc3)O2)ncnc1C(=O)N1CCC(N[C@@H]2CCOC[C@@H]2OC)CC1 [Example 10k]
60 | COc1c(NC[C@H]2CCC[C@@H](c3ccc(Cl)cc3)O2)ncnc1C(=O)N1CCC(N2CCC(N(C)S(C)(=O)=O)CC2)CC1 [Example 10f]
19 | COc1c(NC[C@H]2CCC[C@@H](c3cccc(C)c3)O2)ncnc1C(=O)N1CCC(N[C@H]2CCOC[C@H]2OC)CC1 [Example 10]
84 | COc1c(NC[C@H]2CCC[C@@H](c3ccc(C)cc3)O2)ncnc1C(=O)N1CCC(N2CCC(N(C)S(C)(=O)=O)CC2)CC1 [Example 5]
12 | COc1c(NC[C@H]2CCC[C@@H](c3ccccc3)C2)ncnc1C(=O)N1CCC(N[C@@H]2CCOC[C@@H]2OC)CC1 [Example 11]
22 | COc1c(NC[C@H]2CCC[C@@H](c3ccc(C)cc3)O2)ccnc1C(=O)N1CCC(N[C@@H]2CCOC[C@@H]2OC)CC1 [Example 16]
25 | COc1c(NC[C@H]2CCC[C@@H](c3cccc(C)c3)O2)ncnc1C(=O)N1CCC(N[C@@H]2CCOC[C@@H]2OC)CC1 [Example 9]
10 | COc1c(NC[C@H]2CCC[C@@H](c3ccc(Cl)cc3)O2)ncnc1C(=O)N1CCC(N[C@@H]2CCOC[C@@H]2OC)CC1 [Example 10e]
5 | COc1c(NC[C@H]2CCC[C@@H](c3ccccc3)C2)ncnc1C(=O)N1CCC(N2CCC(N(C)S(C)(=O)=O)CC2)CC1 [Example 3]
15 | COc1c(NCC2CCCC(c3ccccc3)C2)ncnc1C(=O)N1CCC(N2CCC(N(C)S(C)(=O)=O)CC2)CC1 (centres unmarked) [Example 4]
3 | COc1c(NC[C@H]2CCC[C@@H](c3ccc(C(F)(F)F)cc3)O2)ncnc1C(=O)N1CCC(N[C@@H]2CCOC[C@@H]2OC)CC1 [Example 10i]
13 | COc1c(NC[C@H]2CCC[C@@H](c3ccc(C)cc3)O2)ncnc1C(=O)N1CCC(N[C@H]2CCOC[C@H]2OC)CC1 [Example 7]
5 | COc1c(NC[C@H]2CCC[C@@H](c3ccccc3)C2)ncnc1C(=O)N1CCC(N[C@H]2CCOC[C@H]2OC)CC1 [Example 12]
9 | CN(C1CCN(C2CCN(C(=O)c3ncnc(NC[C@H]4CCC[C@@H](c5ccccc5)C4)c3C3CC3)CC2)CC1)S(C)(=O)=O [Example 1]
1 | COc1c(NC[C@H]2CCC[C@@H](c3ccc(OC(F)(F)F)cc3)O2)ncnc1C(=O)N1CCC(N[C@H]2CCOC[C@H]2OC)CC1 [Example 10j]
